Assay results published in patent US10028961B2, “Therapeutically active compounds and their methods of use” (AGIOS PHARMACEUTICALS, INC., priority 2013, dated 2018).

What follows are molecules tested against IDH1 wt/IDH1 R132H heterodimer (Homo sapiens (Human), UniProt O75874, R132H) (assay: In vitro assay for IDH1m R132H inhibitors, IDH1 wt/IDH1 R132H heterodimer, NADPH depletion (diaphorase/resazurin)). Conditions: IDH1 wt/IDH1 R132H heterodimer, 300 μM NADP (saturated); read-out: IDH1 wt/R132H NADPH/NADP IC50 saturated.
Type: biochemical
Protocol: The following describes the experimental procedures that can be used to obtain data on columns 2 and 4 of Table 4 and column 2 of Table 5.
In the primary reaction, the reduction of α-KG acid to 2-HG is accompanied by a concomitant oxidation of NADPH to NADP. The amount of NADPH remaining at the end of the reaction time is measured in a secondary diaphorase/resazurin reaction in which the NADPH is consumed in a 1:1 molar ratio with the conversion of resazurin to the highly fluorescent resorufin.
The mixture of compound, enzyme, and cofactor is pre-incubated at room temperature for 1 hr prior to the addition of alpha-ketoglutarate. To perform the secondary reaction, 10 uL of 1× buffer containing 36 μg/ml diaphorase and […] resazurin is added to the primary reaction and incubated for a further 5 minutes at 25° C. […] Compounds or compound dilutions are prepared in 100% DMSO concentration and diluted 1:50 into the final reaction. […] IC50s are determined.
IDH1 or IDH2 wildtype (wt) and mutant heterodimers are expressed and purified by methods known in the art. […] Co-expression of IDH1wt-his and IDH1R132C-flag is carried out in sf9 insect cells. Cells (25 g) are resuspended in 250 ml of 50 mM Tirs, 500 mM NaCl, pH7.4, at 4° C. with stirring. Cells are disrupted with 4 passes through an M-Y110 Micro fluidizer (Microfluidics) set to 500 psi, and then centrifuged at 22,000 rcf for 20 min at 4° C. The supernatant is harvested and loaded at 15 cm/h on a Histrap FF 5*1 ml column (GE) which is equilibrated with 50 mM Tirs, 500 mM NaCl, pH7.4. Host cell contaminants are removed by washing the column with equilibration buffer followed by equilibration buffer containing 20 mM imidazole and 60 mM imidazole to baseline. IDH1wt-his homodimer and IDH1wt-his/IDH1R132C-flag are eluted by equilibration buffer containing 250 mM imidazole. Fractions eluted by 250 mM imidazole are pooled together and loaded at 15 cm/h onto a column pre-packed with 10 ml ANTI-FLAG® M2 Affinity Gel (Sigma), the column is equilibrated with 50 mM Tris, 500 mM NaCl, pH7.4. After washing with equilibration buffer, IDH1wt-his/IDH1R132C-flag heterodimer is eluted by equilibration buffer containing flag peptide (0.2 mg/ml). Aliquots of IDH1wt-his/IDH1R132C-flag are flash frozen in liquid N2 and stored at −80° C. Same conditions are used for the purification of IDH1wt-his/IDH1R132H-flag.

Chain of IDH1 wt/IDH1 R132H heterodimer (O75874 whole entry R132H): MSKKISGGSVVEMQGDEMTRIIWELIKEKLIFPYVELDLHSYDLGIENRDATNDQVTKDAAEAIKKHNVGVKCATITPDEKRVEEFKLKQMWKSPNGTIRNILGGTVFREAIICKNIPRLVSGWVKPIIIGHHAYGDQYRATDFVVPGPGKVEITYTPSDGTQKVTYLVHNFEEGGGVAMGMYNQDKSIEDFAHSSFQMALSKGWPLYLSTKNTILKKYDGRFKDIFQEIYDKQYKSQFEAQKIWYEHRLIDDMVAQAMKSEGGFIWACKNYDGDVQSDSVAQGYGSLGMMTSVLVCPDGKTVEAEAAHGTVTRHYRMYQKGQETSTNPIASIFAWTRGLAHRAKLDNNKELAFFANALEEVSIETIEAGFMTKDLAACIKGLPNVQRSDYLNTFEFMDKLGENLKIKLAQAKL
Chain of IDH1 wt/IDH1 R132H heterodimer (O75874 whole entry, stated change not applied): as the sequence (O75874 whole entry R132H) above, with H132R counted along it

| IC50 [nM] | Compound |
| --- | --- |
| 50 to 100 | N#CC1(c2cc(Nc3nc(NCC4CC4(F)F)nc(-c4cccc(C(F)(F)F)n4)n3)ccn2)CC1 (stereo not shown) [Compound 362] |

Same assay, conditions: IDH1 wt/R132H heterodimer, NADPH/NADP, not saturated

| IDH1 wt/R132H NADPH/NADP IC50 not saturated | Compound |
| --- | --- |
| No Fit | C[C@@H](Nc1nc(N[C@H](C)C2CC2)nc(-c2ccc(Cl)cc2)n1)C1CC1 [Compound 65] |

Same assay, conditions: IDH1 wt/R132H heterodimer, NADPH/NADP, not saturated; read-out: IDH1 wt/R132H NADPH/NADP IC50 not saturated

| IC50 [nM] | Compound |
| --- | --- |
| > 1000 | CC(CN1CCCCC1)Nc1nc(N[C@H](C)C2CC2)nc(-c2cccc(C(F)(F)F)n2)n1 (stereo partly shown) [Compound 331] |
| 100 to 1000 | C#CCNc1nc(N[C@H](C)C2CC2)nc(-c2cccc(C(F)(F)F)n2)n1 [Compound 284] |
| > 1000 | C[C@@H](Nc1nc(N[C@H](C)C2CC2)nc(-c2cccc(C#N)c2)n1)C1CC1 [Compound 320] |
| < 50 | C[C@@H](Nc1nc(NC2Cc3ccccc3C2)nc(-c2cccc(C(F)(F)F)n2)n1)C1CC1 [Compound 60] |
| < 50 | C=Cc1cccc(-c2nc(N[C@H](C)C3CC3)nc(N[C@H](C)C3CC3)n2)n1 [Compound 240] |
| > 1000 | Cn1ccc(-c2nc(NC3CCC(F)(F)CC3)nc(NC3CCC(F)(F)CC3)n2)n1 [Compound 304] |
| 100 to 1000 | COc1cccc(-c2nc(N[C@H](C)C3CC3)nc(N[C@H](C)C3CC3)n2)n1 [Compound 294] |
| < 50 | COCCC(C)Nc1nc(N[C@H](C)C2CC2)nc(-c2cccc(C(F)(F)F)n2)n1 (stereo partly shown) [Compound 233] |
| 100 to 1000 | FC1(F)CCC(Nc2nc(Nc3cc4ccccc4[nH]3)nc(-c3cccc(C(F)(F)F)n3)n2)C1 (stereo not shown) [Compound 291] |
| 100 to 1000 | COC(=O)CCNc1nc(N[C@H](C)C2CC2)nc(-c2cccc(C(F)(F)F)n2)n1 [Compound 286] |
| > 1000 | Cc1cc(-c2nc(NC3CCC(F)(F)CC3)nc(NC3CCC(F)(F)CC3)n2)no1 [Compound 329] |
| > 1000 | C[C@@H](Nc1nc(N[C@H](C)C2CC2)nc(-c2ccccn2)n1)C1CC1 [Compound 93] |
| > 1000 | C[C@@H](Nc1nc(N[C@H](C)C2CC2)nc(-c2ccnc(C(F)(F)F)c2)n1)C1CC1 [Compound 323] |
| > 1000 | CC(CN1CCOCC1)Nc1nc(N[C@H](C)C2CC2)nc(-c2cccc(C(F)(F)F)n2)n1 (stereo partly shown) [Compound 306] |

The remaining lines, values behind:

| Compound | IC50 [nM] |
| --- | --- |
| FC1(F)CCC(Nc2nc(NC3CCC(F)(F)CC3)nc(-c3cc(Cl)ccn3)n2)CC1 [Compound 314] | > 1000 |
| FC1(F)CC(Nc2nc(NC3CC(F)(F)C3)nc(-c3cccc(OC(F)(F)F)n3)n2)C1 [Compound 277] | 100 to 1000 |
| C[C@@H](Nc1nc(N[C@H](C)C2CC2)nc(-c2ccncc2)n1)C1CC1 [Compound 95] | > 1000 |
| Cc1nc(-c2nc(NC3CCC(F)(F)CC3)nc(NC3CCC(F)(F)CC3)n2)co1 [Compound 324] | > 1000 |
| Cc1cnn(-c2nc(N[C@H](C)C3CC3)nc(N[C@H](C)C3CC3)n2)c1 [Compound 312] | > 1000 |
| COC(=O)N1CCC(Nc2nc(NC3CCC(F)(F)C3)nc(-c3cccc(C(F)(F)F)n3)n2)C1 (stereo not shown) [Compound 59] | < 50 |
| C[C@H](CO)Nc1nc(N[C@H](C)C2CC2)nc(-c2cccc(C(F)(F)F)n2)n1 [Compound 281] | 100 to 1000 |
| C[C@@H](Nc1nc(N[C@H](C)C2CC2)nc(-c2ccccc2Cl)n1)C1CC1 [Compound 94] | > 1000 |
| C[C@@H](Nc1nc(N[C@H](C)C2CC2)nc(-c2cccc(Cl)c2)n1)C1CC1 [Compound 64] | 50 to 100 |

Each molecule was assayed against IDH2 R140Q (Homo sapiens (Human), UniProt P48735, R140Q) (assay: In vitro assay for IDH2m R140Q inhibitors, cofactor depletion assay). Conditions: IDH2 R140Q enzyme.
Type: biochemical
Description: The following describes the experimental procedures used to obtain data on column 7 of Table 4.
The reaction is terminated by the addition of a second enzyme, diaphorase, and a corresponding substrate, resazurin. Diaphorase reduces resazurin to the highly fluorescent resorufin with the concomitant oxidation of NADPH to NADP, both halting the IDH2 reaction by depleting the available cofactor pool and facilitating quantitation of the amount of cofactor remaining after a specific time period through quantitative production of an easily detected fluorophore.
The test compound is then incubated for one hour at room temperature with the enzyme; before starting the IDH2 reaction with the addition of 10 μl of substrate mix containing 4 μM NADPH and 1.6 mM α-KG in the buffer described above. After a further 16 hours of incubation at room temperature, the reaction is halted and the remaining NADPH measured through conversion of resazurin to resorufin by the addition of 25 μl Stop Mix (36 μg/ml diaphorase enzyme and 60 μM resazurin; in buffer).

Chain of IDH2 R140Q (P48735 40-452 R140Q): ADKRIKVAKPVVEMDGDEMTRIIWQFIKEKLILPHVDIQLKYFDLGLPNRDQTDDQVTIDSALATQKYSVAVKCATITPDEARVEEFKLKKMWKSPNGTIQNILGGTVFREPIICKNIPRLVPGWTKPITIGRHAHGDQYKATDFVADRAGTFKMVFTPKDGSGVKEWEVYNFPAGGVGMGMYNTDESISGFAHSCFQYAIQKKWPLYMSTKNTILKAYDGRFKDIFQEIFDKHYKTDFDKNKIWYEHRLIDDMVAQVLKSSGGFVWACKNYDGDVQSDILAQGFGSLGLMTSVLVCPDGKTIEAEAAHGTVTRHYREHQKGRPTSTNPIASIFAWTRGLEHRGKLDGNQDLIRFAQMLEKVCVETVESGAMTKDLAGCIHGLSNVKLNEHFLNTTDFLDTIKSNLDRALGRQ

| IC50 [nM] | Compound |
| --- | --- |
| 50 to 100 | FC1(F)CC(Nc2nc(NC3CC(F)(F)C3)nc(-c3cccc(OC(F)(F)F)n3)n2)C1 [Compound 277] |
| < 50 | N#CC1(c2cc(Nc3nc(NCC4CC4(F)F)nc(-c4cccc(C(F)(F)F)n4)n3)ccn2)CC1 (stereo not shown) [Compound 362] |

These molecules were tested on U87MG pLVX-IDH2 R140Q-neo cells (assay: U87MG pLVX-IDH2 R140Q-neo cell based assay, 2-HG by LC-MS). Conditions: Homo sapiens, U-87 MG.

| IC50 [nM] | Compound |
| --- | --- |
| 50 to 100 | FC1(F)CC(Nc2nc(NC3CC(F)(F)C3)nc(-c3cccc(OC(F)(F)F)n3)n2)C1 [Compound 277] |
